Data: patent EP0437336B1, “Biophosphoryl hydrazines and their use as pesticides” (priority 1990, dated 1991)
Converted amounts (≈) assume the structure as drawn. Like-named read-outs stand apart in the source and are kept apart here.

How the values were obtained:
Two-Spotted Spider Mite = assay: Biological Method D: Foliar Insecticidal Activity Test, mite test; assay type: in vivo, Tetranychus urticae; design: key to LC50 TSM: I = inactive at concentration listed; conditions: Method D foliar test, Two-Spotted Spider Mite; for LC50: Tetranychus urticae, read-out: LC50 TSM
[1] = system: southern corn rootworm, Diabrotica undecimpunctata howardi; conditions: at-planting soil application
Boll Weevil [2] = assay: Biological Method D: Foliar Insecticidal Activity Test, boll weevil test; assay type: in vivo, Anthonomous grandis; design: key: I = inactive at concentration listed
[3] = system: southern corn rootworm, Diabrotica undecimpunctata howardi; conditions: for pest or weed control at 560 g/ha: Diabrotica undecimpunctata, in Zea mays, foliar, 336 h, read-out: foliar systemic nonagressive Method B crw % control at 0.56 kg/ha (0.5 lb/acre); for foliar systemic nonagressive Method B crw % control at 0.56 kg/ha (0.5 lb/acre): percent control relative to infested check, from root damage ratings, 14 days post-spraying
Mexican Bean Beetle = assay: Biological Method D: Foliar Insecticidal Activity Test, Mexican Bean Beetle test; assay type: in vivo, Epilachna varivestis; conditions: Epilachna varivestis, Method D foliar test, Mexican Bean Beetle
[4] = system: southern corn rootworm, Diabrotica undecimpunctata howardi; assay: Biological Method A: Corn Rootworm Screening Test (treated non-aggressive soil); conditions: soil concentration giving 90% mortality, 10 days at 27°C
Southern Armyworm = assay: Biological Method D: Foliar Insecticidal Activity Test, Southern Armyworm test; assay type: in vivo, Spodoptera eridania; design: key: I = inactive at concentration listed
Green Peach Aphid = assay: Biological Method D: Foliar Insecticidal Activity Test, aphid test; assay type: in vivo, Myzus persicae; design: key: I = inactive at concentration listed
Boll Weevil [5] = assay: Biological Method D: Foliar Insecticidal Activity Test, boll weevil test; assay type: in vivo, Anthonomous grandis; conditions: Method D foliar test, Boll Weevil
[6] = 48 hrs, read-out: LC50 BB 48 hrs.
[7] = 96 hrs, read-out: LC50 BB 96 hrs

Structure (SMILES) | LC50 TSM (Two-Spotted Spider Mite) | secondary aggressive Method C crw LC50 ([1]; rated 17 days post-infestation) | secondary aggressive Method C crw LC50 ([1]; value in brackets) | LC50 BW 48 hrs (Boll Weevil [2]) | LC50 BW 96 hrs (Boll Weevil [2]) | pest or weed control at 560 g/ha [3] | LC50 (Mexican Bean Beetle; [6]) | LC50 (Mexican Bean Beetle; [7]) | primary nonagressive Method A crw LC90 [4] | LC50 AW 48 hrs (Southern Armyworm) | LC50 AW 96 hrs (Southern Armyworm) | LC50 GPA (Green Peach Aphid) | foliar systemic nonagressive Method B crw % control at 0.56 kg/ha (0.5 lb/acre) [3] | LC50 (Two-Spotted Spider Mite) | LC50 BW 48 hrs (Boll Weevil [5]; 48 hrs) | LC50 BW 96 hrs (Boll Weevil [5])
CCCOP(=S)(NNP(=S)(OCCC)OCCC)OCCC [Compound 14, reference compound] | I | 1.12 kg/ha | 1.0 lb/acre | I | I | 46% | 500 µg/mL (≈ 1270 µM) | 52 µg/mL (≈ 132 µM) | 0.39 ppm | I | I | I | – | – | – | –
CCOP(=S)(NNP(=S)(OCC)SC(C)C)OCC (stereo not drawn) [Compound 20] | I | 1.01 kg/ha | 0.90 lb/acre | I | I | – | 110 µg/mL (≈ 300 µM) | 52 µg/mL (≈ 142 µM) | 0.40 ppm | I | I | I | 50% | – | – | –
CCOP(=S)(NNP(=S)(OCC)OCC(C)(C)C)OCC (stereo not drawn) [Compound 38, N-(O,O-diethylthiophosphoryl) N′-(O-ethyl O-neopentylthiophosphoryl) hydrazine] | – | 0.5 kg/ha | 0.45 lb/acre | – | – | 46% | 60 µg/mL (≈ 159 µM) | 60 µg/mL (≈ 159 µM) | 0.07 ppm | I | I | I | – | 150 µg/mL (≈ 396 µM) | 740 ppm | 740 ppm
CCCOP(=S)(NNP(=S)(OC(C)C)OC(C)C)OCCC [Compound 16, reference compound] | I | 1.03 kg/ha | 0.92 lb/acre | I | I | 46% | 150 µg/mL (≈ 382 µM) | 62 µg/mL (≈ 158 µM) | 0.95 ppm | I | I | I | – | – | – | –
CCOP(=S)(NNP(=S)(OCC)OC(C)CC)OCC (stereo not drawn) [Compound 8] | – | 0.81 kg/ha | 0.72 lb/acre | I | – | – | 500 µg/mL (≈ 1370 µM) | 84 µg/mL (≈ 231 µM) | <0.1 ppm | I | I | I | 53% | 335 µg/mL (≈ 919 µM) | – | 740 ppm
CCCOP(=S)(NNP(=S)(OCC)OCC(C)C)OCCC (stereo not drawn) [Compound 18, N-(O,O-dipropylthiophosphoryl) N′-(O-ethyl O-isobutylthiophosphoryl) hydrazine] | I | 0.36 kg/ha | 0.32 lb/acre | I | I | 61% | 150 µg/mL (≈ 382 µM) | 78 µg/mL (≈ 199 µM) | <0.1 ppm | I | I | I | – | – | – | –
CCCOP(=S)(NNP(=S)(OCC)OC(C)CC)OCCC (stereo not drawn) [Compound 19, N-(O,O-dipropylthiophosphoryl) N′-(O-ethyl O-secbutylthiophosphoryl) hydrazine] | I | 0.28 kg/ha | 0.25 lb/acre | I | I | 54% | 78 µg/mL (≈ 199 µM) | 62 µg/mL (≈ 158 µM) | <0.1 ppm | I | I | I | – | – | – | –
